{
  "source": "patent US20250248432A1",
  "about": "“MIXTURE COMPRISING D-ALLULOSE AND TASTE MODIFYING COMPOUNDS” (SYMRISE AG, priority 2019, published 2025)",
  "origin": "cited, not measured here",
  "conditions": "relative to sucrose",
  "data": [
    {"smiles": "O=C(CO)C(O)C(O)C(O)CO", "note": "[Allulose, D-allulose]", "values": [
      {"measurement": "sweetness intensity of sucrose", "value": "about 70%"}
    ]}
  ]
}
